Reference: ChEMBL document CHEMBL3045921, “Synthesis and Acaricidal Activity of Pyrazole-5-carboxamide Derivatives” (1991)
≈ marks a conversion by molar mass, not a printed value.

Assays:
Assay type in all cases: functional
Tetranychus urticae [1] = test: Acaricidal activity against Tetranychus urticae (two-spotted spider mite) in kidney bean leaf assessed as mortality at 12.5 ppm at 25 degC measured after 5 days; conditions: 120 h
Tetranychus urticae [2] = test: Acaricidal activity against Tetranychus urticae (two-spotted spider mite) in kidney bean leaf assessed as mortality at 50 ppm at 25 degC measured after 5 days; conditions: 120 h
Tetranychus urticae [3] = test: Acaricidal activity against Tetranychus urticae (two-spotted spider mite) in kidney bean leaf assessed as mortality at 500 ppm at 25 degC measured after 5 days; conditions: 120 h
Tetranychus urticae [4] = test: Acaricidal activity against Tetranychus urticae (two-spotted spider mite) in kidney bean leaf assessed as mortality at 200 ppm at 25 degC measured after 5 days; conditions: 120 h
Tetranychus urticae [5] = test: Acaricidal activity against Tetranychus urticae (two-spotted spider mite) in kidney bean leaf assessed as mortality at 3.1 ppm at 25 degC measured after 5 days; conditions: 120 h
Panonychus citri [6] = test: Ovicidal activity against Panonychus citri in mandarin orange leaf assessed as egg mortality at 25 degC measured after 7 days; conditions: 168 h
Panonychus citri [7] = test: Adulticidal activity against Panonychus citri in mandarin orange leaf assessed as mortality at 25 degC measured after 2 days; conditions: 48 h
Tetranychus urticae [8] = test: Ovicidal activity against Tetranychus urticae (two-spotted spider mite) in kidney bean leaf assessed as egg mortality at 25 degC measured after 7 days; conditions: 168 h
Tetranychus urticae [9] = test: Adulticidal activity against Tetranychus urticae (two-spotted spider mite) in kidney bean leaf assessed as mortality at 25 degC measured after 2 days; conditions: 48 h

| SMILES | mortality at 12.5 ppm (Tetranychus urticae [1]) [%] | mortality at 50 ppm (Tetranychus urticae [2]) [%] | mortality at 500 ppm (Tetranychus urticae [3]) [%] | mortality at 200 ppm (Tetranychus urticae [4]) [%] | mortality at 3.1 ppm (Tetranychus urticae [5]) [%] | LC50 (Panonychus citri [6]) [µg/mL] | LC50 (Panonychus citri [7]) [µg/mL] | LC50 (Tetranychus urticae [8]) [µg/mL] | LC50 (Tetranychus urticae [9]) [µg/mL] |
| --- | --- | --- | --- | --- | --- | --- | --- | --- | --- |
| CCc1nn(C)c(C(=O)NCc2ccc(C(C)C)cc2)c1Cl | 30 | 100 | 100 | 100 | 0 | – | – | – | – |
| CCc1nn(C)c(C(=O)NCc2ccc(C(C)(C)C)cc2)c1Br | – | – | – | – | – | 10 (≈ 26.4 µM) | 0.59 (≈ 1.56 µM) | 1.4 (≈ 3.7 µM) | 7.1 (≈ 18.8 µM) |
| CCc1nn(C)c(C(=O)NCc2ccc(C3CC3)cc2)c1Cl | 0 | 0 | 30 | 0 | 0 | – | – | – | – |
| CCCCc1ccc(CNC(=O)c2c(Cl)c(CC)nn2C)cc1 | 80 | 100 | 100 | 100 | 0 | – | – | – | – |
| Cc1cc(C(=O)NCc2ccc(C(C)(C)C)cc2)n(C)n1 | 30 | 100 | 100 | 100 | 0 | – | – | – | – |
| Cc1nn(C)c(C(=O)NCc2ccc(C(C)(C)C)cc2)c1C | 100 | 100 | 100 | 100 | 0 | 36 (≈ 120 µM) | 6.1 (≈ 20.4 µM) | 8.8 (≈ 29.4 µM) | 7.5 (≈ 25 µM) |
| Cc1nn(C)c(C(=O)NCc2ccc(C(C)(C)C)cc2)c1C#N | 0 | 0 | 0 | 0 | 0 | – | – | – | – |
| Cc1nn(C)c(C(=O)NCc2ccc(C(C)(C)C)cc2)c1[N+](=O)[O-] | 0 | 0 | 0 | 0 | 0 | – | – | – | – |
| COc1c(C)nn(C)c1C(=O)NCc1ccc(C(C)(C)C)cc1 | 100 | 100 | 100 | 100 | 0 | – | – | – | – |
| CCOc1c(C)nn(C)c1C(=O)NCc1ccc(C(C)(C)C)cc1 | 0 | 0 | 100 | 100 | 0 | – | – | – | – |
| Cc1nn(C)c(C(=O)NCc2ccc(C(C)(C)C)cc2)c1OC(F)F | 0 | 0 | 100 | 0 | 0 | – | – | – | – |
| Cc1nn(C)c(C(=O)NCc2ccc(C(C)(C)C)cc2)c1N | 0 | 0 | 0 | 0 | 0 | – | – | – | – |
| CC(=O)Nc1c(C)nn(C)c1C(=O)NCc1ccc(C(C)(C)C)cc1 | 0 | 0 | 0 | 0 | 0 | – | – | – | – |
| Cn1ncc(Cl)c1C(=O)NCc1ccc(C(C)(C)C)cc1 | 0 | 30 | 100 | 100 | 0 | – | – | – | – |
| CC(C)c1nn(C)c(C(=O)NCc2ccc(C(C)(C)C)cc2)c1Cl | 30 | 100 | 100 | 100 | 0 | – | – | – | – |
| Cn1nc(C2CC2)c(Cl)c1C(=O)NCc1ccc(C(C)(C)C)cc1 | 0 | 0 | 30 | 0 | 0 | – | – | – | – |
| CCCc1nn(C)c(C(=O)NCc2ccc(C(C)(C)C)cc2)c1Cl | 0 | 30 | 100 | 80 | 0 | – | – | – | – |
| CCCCc1nn(C)c(C(=O)NCc2ccc(C(C)(C)C)cc2)c1Cl | 0 | 0 | 0 | 0 | 0 | – | – | – | – |
| CC(C)Cc1nn(C)c(C(=O)NCc2ccc(C(C)(C)C)cc2)c1Cl | 0 | 0 | 0 | 0 | 0 | – | – | – | – |
| Cn1nc(-c2ccccc2)c(Cl)c1C(=O)NCc1ccc(C(C)(C)C)cc1 | 0 | 0 | 0 | 0 | 0 | – | – | – | – |
| CCc1nn(C)c(C(=O)NCc2ccccc2)c1Cl | 0 | 0 | 0 | 0 | 0 | – | – | – | – |
| CCc1nn(C)c(C(=O)NCc2ccc(C)cc2)c1Cl | 0 | 0 | 0 | 0 | 0 | – | – | – | – |
| CCc1ccc(CNC(=O)c2c(Cl)c(CC)nn2C)cc1 | 0 | 0 | 30 | 0 | 0 | – | – | – | – |
| CCCc1ccc(CNC(=O)c2c(Cl)c(CC)nn2C)cc1 | 0 | 0 | 100 | 30 | 0 | – | – | – | – |
| Cc1nn(C)c(C(=O)NCc2ccc(C(C)(C)C)cc2)c1Br | 30 | 100 | 100 | 100 | 0 | 17 (≈ 46.7 µM) | 4 (≈ 11 µM) | 3 (≈ 8.24 µM) | 9.8 (≈ 26.9 µM) |
| Cc1nn(C)c(C(=O)NCc2ccc(C(C)(C)C)cc2)c1Cl | 100 | 100 | 100 | 100 | 30 | 9.9 (≈ 31 µM) | 3.1 (≈ 9.69 µM) | 2.4 (≈ 7.5 µM) | 7.7 (≈ 24.1 µM) |
| CCc1nn(C)c(C(=O)NCc2ccc(C(C)(C)C)cc2)c1Cl [TEBUFENPYRAD] | 100 | 100 | 100 | 100 | 100 | 3.9 (≈ 11.7 µM) | 0.5 (≈ 1.5 µM) | 0.96 (≈ 2.88 µM) | 3.7 (≈ 11.1 µM) |
